Laboratory results as given in patent US8232414B2, “Polymorphic form of rotigotine and process for production” (UCB Pharma GmbH, priority 2007, dated 2012).

How the values were obtained:
[1] = Solubility in EtOH at room temperature; type: physicochemical
[2] = Thermodynamic stability from DSC (melting point, enthalpy of fusion; Burger-Ramberger rules); type: physicochemical; conditions: heating rate 10° C./min, 30° C. to 140° C., Burger-Ramberger rules applied
Source text: Polymorph form (II) of rotigotine can be further characterized and distinguished from form (I) by differential scanning calorimetry (DSC). A DSC thermogram of form (II) is provided in FIG. 5, and was obtained using DSC techniques known to those of skill in the art. One of skill in the art would readily be able to determine the conditions necessary to obtain a DSC thermogram of form (II). A variety of differential scanning calorimeters are available to those of skill in the art and include the Differential Scanning Calorimeter of Mettler Toledo (DSC822e) using temperatures of about 25° C. to about 250° C., in particular about 30° C. to about 140° C. and temperature increases at various rates including 1° C./min, 10° C./min, 20° C./min, among other instruments and conditions. One skilled in the art would recognize that the peak positions in the DSC thermogram can vary depending upon kinetic factors such as, for example, heating rate and particle size. Thermal behavior investigations of rotigotine of polymorphic form (I) (batch 1608726) and of polymorphic form (II) (batch 7769396) were performed on a Mettler Toledo DSC system and on a TA instrument (Q-1000). The analyses were carried out with a heating rate of 10° C./min in pierced aluminum crucibles in a temperature range from 30° C. to 140° C.

| SMILES | solubility in EtOH [1] | solubility in EtOH relative to polymorphic form (I) ([1]; form (II) versus form (I)) | thermodynamic stability relative to form (I) [2] | thermodynamic stability relative to form (I) ([2]; listed as form (II)) |
| --- | --- | --- | --- | --- |
| CCCN(CCc1cccs1)[C@H]1CCc2c(O)cccc2C1 [polymorphic form (II), (−)-5,6,7,8-tetrahydro-6-[propyl-[2-(2-thienyl)ethyl]amino]-1-naphthalenol] | 60 to 100 mg/mL | at least five times lower | thermodynamically more stable than polymorphic form (I) at all considered temperatures | thermodynamically more stable than form (I) at any temperature considered |
| CCCN(CCc1cccs1)[C@H]1CCc2c(O)cccc2C1 [polymorphic form (I), (−)-5,6,7,8-tetrahydro-6-[propyl-[2-(2-thienyl)ethyl]amino]-1-naphthalenol, reference compound] | about 500 mg/ml | – | – | – |
